Data: patent US20050090474A1, “Methods and compositions for enhancing and inhibiting fertilization” (priority 2002, published 2005)
Entries after “also recorded” stand apart in the source; their conditions may differ.

Columns and labels:
Assay type in all cases: cell-based
[1] = test system: capacitated human spermatozoa; assay: Drug effect on acrosome reaction; set-up: Acrosome reaction: unit not given here; settings: for Acrosome reaction (AR) stimulated by inducer: inducer alone, stimulation over control; for AR stimulated by A23187 in the presence of inhibitor / stimulated AR observed in the presence of progesterone and hZP-3, effect of inhibitor: Table 1; for stimulated AR observed in the presence of progesterone and hZP-3, effect of inhibitor: progesterone- and hZP-3-stimulated AR
Protocol: (§1) Sperm capacitation—Isolated sperm samples were incubated for 3 hours at 36° C. in HAM's F-10 medium supplemented with 0.3% BSA as in Rotem et al., 1990a, b
Drug effect on acrosome reaction—To test the involvement of MAPK cascade proteins on acrosome reaction the following drugs were added to the incubation medium: Progesterone (Sigma-Aldrich Corp., St Louis, Mo., USA), hZP-3 (human zona pellucida protein 3, obtained from P. Salling, N.C., USA) diluted in MOCK (F-10 medium containing 0.1% DMSO, Biological Industries, Beth Ha'Emek, Israel), A23187 (calcium ionophore, Calbiochem, La Jolla, Calif., USA), PD98059 (Biomol, Plymouth Meeting, Pa., USA), SB203580 (Biomol, Plymouth Meeting, Pa., USA) and GF109203X (PKC inhibitor, Calbiochem, La Jolla, Calif., USA). Acrosome reaction was determined as described elsewhere (Rotem et al., 1992).

human spermatozoa = assay: Drug effect on sperm motility (progressive flagellar motility)
Protocol: FIG. 8 is a graphic representation of the effect of progesterone and MAPK inhibitors on human spermatozoa motility. Human spermatozoa (5×10^7/ml) were incubated with PD98059 (ERK inhibitor, at 50 μM, FIG. 8, marked with “PD”) and SB203580 (p38 inhibitor, at 50 μM, FIG. 8, marked with “SB”), in the presence or absence of progesterone (at 5 μg/ml, FIG. 8, marked with “P”) for the indicated time. Percent motile spermatozoa was determined in aliquots of 10 μl. Results are expressed as mean ±SEM of three experiments.
Isolation of human sperm samples—Human semen were obtained upon informed consent from healthy donors having normal sperm density, motility and morphology (according to the World Health Organization (WHO) guidelines of 1992) following 3 days of sexual abstinence. Sperm samples were collected into sterile 50 ml tubes and semen was liquefied for 1 hour at 36° C., washed twice with HAM's F-10 medium (Biological Industries, Beth Ha'Emek, Israel) supplemented with 0.3% bovine serum albumin (BSA) and separated from non-sperm cells by a Percoll gradient centrifugation (Sigma-Aldrich Corp., St Louis, Mo., USA) essentially as described elsewhere (Rotem et al., 1990a, b). The resultant sperm sample contained approx. 50×10^6 sperm/ml.
as §1
Drug effect on sperm motility—To test the effect of MAPK inhibitors and progesterone on sperm motility the following drugs were added to the incubation medium: PD98059 (ERK inhibitor, Biomol, Plymouth Meeting, Pa., USA), SB203580 (p38 inhibitor, Biomol, Plymouth Meeting, Pa., USA) and progesterone (Sigma-Aldrich Corp., St Louis, Mo., USA). Progressive flagellar motility was determined as described elsewhere (Rotem et al., 1990a, b).

ERK 1 and ERK 2 = assay: Determination of phosphorylated ERK by in-gel kinase assay; settings: human spermatozoa stimulated by progesterone 5 μg/ml, bands of 44 and 42 kDa, data not shown
Protocol: Determination of phosphorylated ERK by in-gel kinase assay—To further substantiate its role in spermatozoa maturation the phosphorylation state of ERK was determined by in-gel kinase assay as described elsewhere (Naor et al., 1999). […] Mitogen-activated protein (MAP) kinase pathways: regulation and physiological functions. Endocr. Rev. 22: 153-183] are active in human spermatozoa.

ERK = assay: Western blot with antibody against phosphorylated (active) ERK; settings: capacitated human spermatozoa, 0.2 M vanadate, 60 min, FIG. 4a
Protocol: (§2) FIGS. 4a-f are autoradiograms depicting expression and activity of MAPK proteins in human spermatozoa. LβT2 cells were treated for 60 min with 50 ng/ml 12-O-Tetradecanoylphorbol-13-acetate (TPA, FIGS. 4a-f, lane 1) and capacitated human spermatozoa were treated for 60 min with 0.2 M vanadate (FIGS. 4a-f, lane 3) or were remained untreated (FIGS. 4a-f, lane 2). Cell lysates were subsequently prepared and subjected to Western blot analysis with antibodies directed at the active, phosphorylated form of ERK, p38 and JNK (FIGS. 4a, 4c and 4e, respectively), or with antibodies directed at the unphosphorylated form of ERK, p38 and JNK (FIGS. 4b, 4d and 4f, respectively).
(§3) Western blot analysis—Western blot analysis was effected with antibodies directed at ERK, JNK and p38 proteins as well as with antibodies directed at the phosphorylated forms of these MAPK proteins (Sigma Rehovot, Israel). The assay was performed as previously described (Yung et al., 1997).
(§4) Molecular identification of MAPK cascade proteins in human spermatozoa—Capacitated human spermatozoa cell lysate were generated as described and subjected to Western blot analysis using MAPK antibodies specific to either the phosphorylated or the general forms of ERK, p38 and INK proteins. […]

p38 = assay: Western blot with antibody against phosphorylated (active) p38; settings: capacitated human spermatozoa, 0.2 M vanadate, 60 min, FIG. 4c
Protocol: as §2, §3, §4

CNc1ccc2oc(C[C@H]3O[C@@]4(CC[C@H]3C)O[C@H]([C@H](C)C(=O)c3ccc[nH]3)[C@H](C)C[C@H]4C)nc2c1C(=O)O [A23187]
Acrosome reaction ([1]; A23187 10 μM, no inhibitor (Control)): 51
Acrosome reaction (AR) stimulated by inducer [1]: 140%

CN(C)CCCn1cc(C2=C(c3c[nH]c4ccccc34)C(=O)NC2=O)c2ccccc21 [GF109203X]
AR stimulated by A23187 in the presence of inhibitor [1]: persisted
Acrosome reaction ([1]; GF109203X 100 nM, no inducer (Control)): 19
Acrosome reaction ([1]; GF109203X 100 nM, with A23187 10 μM): 48
Acrosome reaction ([1]; GF109203X 100 nM, with MOCK): 28
Acrosome reaction ([1]; GF109203X 100 nM, with hZP3 50 ng/ml): 18
Acrosome reaction ([1]; GF109203X 100 nM, with progesterone 5 μg/ml): 15
stimulated AR observed in the presence of progesterone and hZP-3, effect of inhibitor [1]: markedly inhibited

COc1cccc(-c2cc(=O)c3ccccc3o2)c1N [PD98059]
progressive flagellar motility decreased to (human spermatozoa; human spermatozoa, 50 μM PD98059, transient, FIG. 8): 50%
AR stimulated by A23187 in the presence of inhibitor [1]: persisted
Acrosome reaction ([1]; PD98059 5 μM, no inducer (Control)): 17
Acrosome reaction ([1]; PD98059 5 μM, with A23187 10 μM): 50
Acrosome reaction ([1]; PD98059 5 μM, with MOCK): 25
Acrosome reaction ([1]; PD98059 5 μM, with hZP3 50 ng/ml): 29
Acrosome reaction ([1]; PD98059 5 μM, with progesterone 5 μg/ml): 18
stimulated AR observed in the presence of progesterone and hZP-3, effect of inhibitor [1]: markedly inhibited

CC(=O)[C@H]1CC[C@H]2[C@@H]3CCC4=CC(=O)CC[C@]4(C)[C@H]3CC[C@]12C [Progesterone, progesterone]
effect on progressive flagellar motility (human spermatozoa; human spermatozoa, 5 μg/ml progesterone, FIG. 8): no effect
Acrosome reaction (AR) stimulated by inducer [1]: 50%
Acrosome reaction ([1]; progesterone 5 μg/ml, no inhibitor (Control)): 31
phosphorylation state of ERK (in-gel kinase assay) (ERK 1 and ERK 2): exhibited two phosphorylated bands

C[S+]([O-])c1ccc(-c2nc(-c3ccncc3)c(-c3ccc(F)cc3)[nH]2)cc1 (centres unmarked) [SB203580]
SB203580-induced increase in progressive flagellar motility (human spermatozoa; 50 μM SB203580 co-introduced with 5 μg/ml progesterone, FIG. 8 SB+P): completely abolished
sperm motility (percent motile spermatozoa), FIG. 8 legend (human spermatozoa; SB203580 50 μM in the presence of progesterone 5 μg/ml): normal motility
sperm motility (percent motile spermatozoa), FIG. 8 legend (human spermatozoa; human spermatozoa 5×10^7/ml, SB203580 50 μM): significant increase
increase in progressive flagellar motility (human spermatozoa; human spermatozoa, 50 μM SB203580, FIG. 8): over 120%
AR stimulated by A23187 in the presence of inhibitor [1]: persisted
non-specific increase in AR stimulated by MOCK, effect of inhibitor ([1]; MOCK-stimulated AR): inhibited
Acrosome reaction ([1]; SB203580 20 μM, no inducer (Control)): 17
Acrosome reaction ([1]; SB203580 20 μM, with A23187 10 μM): 49
Acrosome reaction ([1]; SB203580 20 μM, with MOCK): 15
Acrosome reaction ([1]; SB203580 20 μM, with hZP3 50 ng/ml): 28
Acrosome reaction ([1]; SB203580 20 μM, with progesterone 5 μg/ml): 11
stimulated AR observed in the presence of progesterone and hZP-3, effect of inhibitor [1]: markedly inhibited

[O]=[V]([O-])([O-])[O-] [vanadate]
phosphorylated ERK (Western blot signal) (ERK): could be detected only following treatment; also recorded: increased band intensity
phosphorylated form of p38 (Western blot signal) (p38): regardless of vanadate treatment
